Measurements taken from ChEMBL document CHEMBL1150481, “The inhibition of glutamate racemase by” (Bioorg Med Chem Lett, 1997).

T1: Glutamate racemase (Lactobacillus fermentum) (UniProt Q03469)
T1 sequence (whole entry): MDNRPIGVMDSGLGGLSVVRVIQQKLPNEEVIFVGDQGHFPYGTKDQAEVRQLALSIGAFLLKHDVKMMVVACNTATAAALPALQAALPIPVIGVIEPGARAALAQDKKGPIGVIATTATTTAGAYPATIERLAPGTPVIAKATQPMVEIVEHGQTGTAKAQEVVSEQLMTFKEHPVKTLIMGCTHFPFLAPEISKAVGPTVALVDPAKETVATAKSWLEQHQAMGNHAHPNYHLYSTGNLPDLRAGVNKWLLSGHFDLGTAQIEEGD

T2: Glutamate racemase (Lactobacillus fermentum, UniProt Q03469)
T2 sequence (Q03469 whole entry): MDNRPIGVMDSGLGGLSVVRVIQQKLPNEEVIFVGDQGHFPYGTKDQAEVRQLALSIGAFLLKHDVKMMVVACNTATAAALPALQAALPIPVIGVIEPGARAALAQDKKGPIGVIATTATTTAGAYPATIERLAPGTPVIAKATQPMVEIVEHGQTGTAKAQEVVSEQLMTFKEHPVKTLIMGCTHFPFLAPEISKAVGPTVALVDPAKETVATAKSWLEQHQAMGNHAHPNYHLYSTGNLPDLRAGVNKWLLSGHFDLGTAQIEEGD


How the values were obtained:
[1] = biological target: T1, Glutamate racemase (Lactobacillus fermentum); assay: Enzyme kinetic constant for Glutamate racemase and expressed as Kcat
[2] = Ratio of kcat to that of KM was determined
Glutamate racemase [3] = biological target: T2, Glutamate racemase; assay: Inhibition towards glutamate racemase from Lactobacillus fermenti was determined and expressed as KI; set-up: species or system Limosilactobacillus fermentum
[4] = Inhibition towards diaminopimelate (DAP) epimerase was determined
Glutamate racemase [5] = biological target: T2, Glutamate racemase; assay: Inhibition towards glutamate racemase was determined and expressed as KI; set-up: species or system Limosilactobacillus fermentum
[6] = Inhibition towards diaminopimelate (DAP) epimerase was determined and expressed as KI
[7] = substrate: N[C@H](CCC(=O)O)C(=O)O; settings: Limosilactobacillus fermentum
[8] = substrate: O=C(O)CCC(=O)C(=O)O; assay: Enzyme kinetic constant for Glutamate racemase and expressed as Km

k cat/Km [2] | Molecule | IC50 [4] | other results
3200 M⁻¹ s⁻¹ | O=C(O)CCC(=O)C(=O)O |  | k cat [1]: 0.18 s⁻¹
30 M⁻¹ s⁻¹ | N[C@@H](CCC(=O)O)C(=O)O [GLUTAMIC ACID] |  | Ki (Glutamate racemase [3]): 28 µM
 | N[C@@H](CC[C@H](F)[C@@H](N)C(=O)O)C(=O)O | 8 µM | 
3700 M⁻¹ s⁻¹ | N[C@H](CCC(=O)O)C(=O)O [D-GLUTAMATE] |  | Ki (Glutamate racemase [3]): 56 µM; Ki (Glutamate racemase [5]): 190 µM
 | N[C@@H](CC[C@@H](F)[C@@H](N)C(=O)O)C(=O)O | 25 µM | 
 | N[C@H](C(=O)O)[C@@H](F)CC[C@H](N)C(=O)O | 4 µM | 
 | N[C@H](C(=O)O)[C@H](F)CC[C@H](N)C(=O)O | 10 µM | 
 | NC(CCCC(NO)C(=O)O)C(=O)O (centres undefined) |  | Ki [6]: 5.6 µM
 | Glutamate racemase (Lactobacillus fermentum), Q03469 (protein) MDNRPIGVMDSGLGGLSVVRVIQQKLPNEEVIFVGDQGHFPYGTKDQAEVRQLALSIGAFLLKHDVKMMVVACNTATAAALPALQAALPIPVIGVIEPGARAALAQDKKGPIGVIATTATTTAGAYPATIERLAPGTPVIAKATQPMVEIVEHGQTGTAKAQEVVSEQLMTFKEHPVKTLIMGCTHFPFLAPEISKAVGPTVALVDPAKETVATAKSWLEQHQAMGNHAHPNYHLYSTGNLPDLRAGVNKWLLSGHFDLGTAQIEEGD |  | Km [7]: 300 µM; Km [8]: 57 µM
